The text below walks through data of patent US20230338463A1, “ICD PEPTIDE AND USE THEREOF FOR HAVING CYTOTOXIC ACTIVITY ON CANCER CELLS” (NATIONAL TSING HUA UNIVERSITY, priority 2022, published 2023).

Non-standard residues stand in square brackets, D forms with d. Residues, ends and D or L forms follow the SMILES beside them. 2Nal = N[C@@H](Cc1ccc2ccccc2c1)C(=O)O

For experiment [1], the system named is MN-11 cells (murine fibrosarcoma). In kind it is cell-based. The source says:
Medium with PBS solution was used as control group.
Besides, MTT assay was used to test the cell viability of the murine fibrosarcoma MN-11 cell line. Among the peptides, Dip-P-113 had the lowest cytotoxicity against MN-11 cells (FIG. 1F).

For experiment [2], the system named is PC 9 cells. Description: Extracellular HMGB1 Western blot, PC 9. In kind it is cell-based, human. Here is the method: HMGB 1 is a chromatin-binding protein and plays an important role as an indicator in the peptide induced immunogenic cell death. In one embodiment, the PC 9 cells were seeded at the density of 2 × 10^4 cells/well under the culture condition in 6-well plate as mentioned earlier in the cell viability determination and left to adhere for 48 hrs. The cells were treated with 56.22 µM of SEQ ID NO:3, 128.38 µM of SEQ ID NO:4 and 142.9 µM of SEQ ID NO: 5 peptides which is the two-fold IC50 concentration for 1 hour (FIG. 4A), 2 hour (FIG. 4B), 4 hour (FIG. 4C) under the incubation condition of humidified 5% CO2 and 37° C. The ICD peptides used were dissolved thoroughly in the serum-free medium (RPMI 1640) before treating the cells.
After the treatment of ICD peptides, the supernatant and lysate of the cells were collected separately for the further experiment. The supernatant was centrifuged at the speed of 1,500 RCF while the cell lysate was undergoing the centrifugation at 14,000 rpm for 5 minutes under the temperature of 4° C. Then, the pellet collected from the supernatant and supernatant of centrifuged cell lysate were discarded. The harvested pellet of cell lysate was washed twice using 200 µL PBS each time preliminarily the sonication of the pellet using bio-disruptor. The disrupted pellet was centrifuged again for 10 minutes under 14,000 rpm and 4° C.
The concentration of the samples was quantified using the commercially available protein quantification assay such as Bradford assay to make sure the amount of the protein was equally loaded in each of the well for SDS-PAGE gel.
The transfer process from polyacrylamide gel to PVDF membrane was performing for 75 minutes under 30 V and 400 mA as well as semi-dry condition. PBST buffer was used to wash the PVDF membrane three times after the transfer process.
The anti-HMGB1 antibody (Abcam, Cambridge, UK, ab18256) will be the primary antibody and incubated overnight at 4° C. in the dilution ratio of 1: 1000. […]

For experiment [3], the system named is PC 9 cells. Description: Luciferin-luciferase extracellular ATP, PC 9. As to conditions: PC 9, 2 × IC50, peak at 0.5 hour. The experiment is classed as cell-based, human. The protocol:
The ATP release from cancer cells were measured using the luciferin-luciferase assay as ATP release had been the iconic feature for immunogenic cell death (ICD).
PC 9 cells were seeded in the 96 well plate at the density of 10,000 cells/ well and allowed to adhere for 48 hours in the condition described previously for MTT assay. […] All of the three ICD peptides were dissolved in the serum-free RPMI 1640 medium for the cells’ treatment. Cells were treated with serum-free RPMI 1640 medium containing PBS as the control group. After being treated for 0.5, 1, 1.5, and 2 hours, the supernatant of cells was collected separately and stored at -20° C. before the ATP assay. The aliquot of reconstituted rL/L reagent in the ENLITEN ATP assay kit (Promega, Madison, WI, USA) was incubated at room temperature for one hour before using. The collected supernatant of the cells was centrifuged at the speed of 500 xg for 10 minutes and took out 100 µL of the supernatant into the black 96 well plate with clear bottom to avoid cross-talk between wells. […] Measurement of the extracellular ATP chemiluminescence was completed using the Wallac VICTOR 3 Multilabel plate reader (PerkinElmer, Shelton, CT, USA)

Another experiment deals with MN-11 cells. Description: Extracellular cytochrome c ELISA, MN-11. In kind it is cell-based, murine. The protocol:
The cells were treated with 2× IC50 Nal-P-113 (FIG. 8A), Bip-P-113 (FIG. 8B), and Dip-P-113 (FIG. 8C) for 0.5, 1, 1.5, 2, and 4 h, respectively. Untreated cells were used as a control. Results are presented as mean ± SD of three independent experiments. **P<0.01; ***P<0.001 compared with control.
Not only that the amount of supernatant cytochrome c release from MN-11 cells was measured by ELISA assay to reveal peptide induced mitochondrial DAMPs. Five time points (0.5, 1, 1.5, 2 and 4 hours) were used to quantify the amount of cytochrome c released and the results were shown in FIGS. 8A-8C. Nal-P-113 (FIG. 8A) and Dip-P-113 (FIG. 8C) induced a relatively high amount of cytochrome c compared to Bip-P-113 (FIG. 8B). In the Nal-P-113 (FIG. 8A) treated group, the amount of cytochrome c release has come to a maximal value of nearly 25 ng/mL at 2 hours while the minimum value of 10 ng/mL at 30 minutes has been observed. The highest amounts of cytochrome c detected in the supernatant for Dip-P-113 (FIG. 8C) was around 35 ng/mL at 4 hours and the lower amount around 18 ng/mL at 30 minutes.
On the technique in general: In an ELISA, binding on a coated surface is turned into a signal by an enzyme label.

As for `CC(=O)N[C@@H](C)C(=O)N[C@@H](CCCCN)C(=O)N[C@@H](CCCNC(=N)N)C(=O)N[C@@H](Cc1ccc2ccccc2c1)C(=O)N[C@@H](Cc1ccc2ccccc2c1)C(=O)NCC(=O)N[C@@H](Cc1ccc(O)cc1)C(=O)N[C@@H](CCCCN)C(=O)N[C@@H](CCCNC(=N)N)C(=O)N[C@@H](CCCCN)C(=O)N[C@@H](Cc1ccccc1)C(=O)N[C@@H](Cc1ccc2ccccc2c1)C(N)=O` [SEQ ID NO:3, Ac-AKR Nal Nal GYKRKFNal-NH2] (Ac-AKR[2Nal][2Nal]GYKRKF[2Nal]-NH2), in experiment [1], the IC50 (as a rule, the point on the concentration scale where inhibition reaches its midpoint) was 11.1 ± 1.37 µM. Also, the HMGB1 in supernatant entry in the experiment with PC 9 cells [2] (PC 9, 2 × IC50, 1 hour) was “nothing is observed”; in the experiment with PC 9 cells [2] (PC 9, 2 × IC50, 2 hours), “can be detected”; with PC 9 cells [2] (PC 9, 2 × IC50, 4 hours) it was “obviously be seen”. In the experiment with PC 9 cells [3], the “ATP release, highest value (relative light unit)” value is reported as “around 10,000 RLU”. Moreover, the “cytochrome c release, minimum / lower amount” value in the experiment on MN-11 cells (MN-11, 2× IC50, at 30 minutes) is recorded as 10 ng/mL. Also, the “cytochrome c release, maximal value” with MN-11 cells (MN-11, 2× IC50, at 2 hours) is on record as around 25 ng/mL.
